Where only a bound is given, the exact number is not on record here.

The target in the first assay is T1, Human CaV2.2 channels (Homo sapiens, UniProt Q00975).
T1 construct: expressed in transfected cells
T1 sequence (P54289 947-1103): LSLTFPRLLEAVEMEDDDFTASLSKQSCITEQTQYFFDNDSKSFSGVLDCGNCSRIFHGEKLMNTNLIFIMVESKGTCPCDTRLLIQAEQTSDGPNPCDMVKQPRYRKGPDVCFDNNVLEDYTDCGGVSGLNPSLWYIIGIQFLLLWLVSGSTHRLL
T1 sequence (P54289 25-946): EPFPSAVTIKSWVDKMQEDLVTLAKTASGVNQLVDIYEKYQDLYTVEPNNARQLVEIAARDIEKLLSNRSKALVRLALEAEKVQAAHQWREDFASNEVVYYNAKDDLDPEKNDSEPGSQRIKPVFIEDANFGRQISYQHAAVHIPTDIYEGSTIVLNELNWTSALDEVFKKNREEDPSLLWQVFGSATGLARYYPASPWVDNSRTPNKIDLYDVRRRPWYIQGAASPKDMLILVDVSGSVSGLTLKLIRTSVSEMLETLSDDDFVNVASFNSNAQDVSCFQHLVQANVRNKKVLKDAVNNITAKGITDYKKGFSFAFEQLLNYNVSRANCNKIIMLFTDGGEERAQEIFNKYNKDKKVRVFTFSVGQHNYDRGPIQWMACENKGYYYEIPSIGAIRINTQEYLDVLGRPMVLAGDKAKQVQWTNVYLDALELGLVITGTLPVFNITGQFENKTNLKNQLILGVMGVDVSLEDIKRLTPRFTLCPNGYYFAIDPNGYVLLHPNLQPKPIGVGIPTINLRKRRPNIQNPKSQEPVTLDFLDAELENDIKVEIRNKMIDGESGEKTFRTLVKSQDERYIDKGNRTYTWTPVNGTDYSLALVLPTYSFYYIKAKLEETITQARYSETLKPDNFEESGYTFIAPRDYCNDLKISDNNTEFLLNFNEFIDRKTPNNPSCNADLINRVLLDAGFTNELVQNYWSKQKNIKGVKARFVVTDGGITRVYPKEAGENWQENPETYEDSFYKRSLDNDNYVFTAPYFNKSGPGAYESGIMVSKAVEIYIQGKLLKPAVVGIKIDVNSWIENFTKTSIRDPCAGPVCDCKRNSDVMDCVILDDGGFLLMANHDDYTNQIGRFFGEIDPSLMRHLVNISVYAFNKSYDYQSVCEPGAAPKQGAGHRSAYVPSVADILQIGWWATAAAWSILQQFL
T1 sequence (P54284 whole entry, further chain): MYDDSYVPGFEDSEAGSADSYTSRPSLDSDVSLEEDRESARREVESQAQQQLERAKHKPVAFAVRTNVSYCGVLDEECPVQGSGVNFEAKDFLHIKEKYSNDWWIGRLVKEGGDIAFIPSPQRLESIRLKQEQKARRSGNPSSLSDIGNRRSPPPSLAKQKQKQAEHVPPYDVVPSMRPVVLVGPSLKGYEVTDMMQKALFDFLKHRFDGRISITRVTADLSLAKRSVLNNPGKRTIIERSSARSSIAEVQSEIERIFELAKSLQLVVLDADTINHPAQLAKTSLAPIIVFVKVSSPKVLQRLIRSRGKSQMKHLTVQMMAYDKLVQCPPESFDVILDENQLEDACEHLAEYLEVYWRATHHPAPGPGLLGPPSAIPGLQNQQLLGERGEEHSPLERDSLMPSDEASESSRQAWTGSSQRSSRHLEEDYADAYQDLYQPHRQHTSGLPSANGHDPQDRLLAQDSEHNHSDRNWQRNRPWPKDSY
T1 sequence (Q00975 whole entry): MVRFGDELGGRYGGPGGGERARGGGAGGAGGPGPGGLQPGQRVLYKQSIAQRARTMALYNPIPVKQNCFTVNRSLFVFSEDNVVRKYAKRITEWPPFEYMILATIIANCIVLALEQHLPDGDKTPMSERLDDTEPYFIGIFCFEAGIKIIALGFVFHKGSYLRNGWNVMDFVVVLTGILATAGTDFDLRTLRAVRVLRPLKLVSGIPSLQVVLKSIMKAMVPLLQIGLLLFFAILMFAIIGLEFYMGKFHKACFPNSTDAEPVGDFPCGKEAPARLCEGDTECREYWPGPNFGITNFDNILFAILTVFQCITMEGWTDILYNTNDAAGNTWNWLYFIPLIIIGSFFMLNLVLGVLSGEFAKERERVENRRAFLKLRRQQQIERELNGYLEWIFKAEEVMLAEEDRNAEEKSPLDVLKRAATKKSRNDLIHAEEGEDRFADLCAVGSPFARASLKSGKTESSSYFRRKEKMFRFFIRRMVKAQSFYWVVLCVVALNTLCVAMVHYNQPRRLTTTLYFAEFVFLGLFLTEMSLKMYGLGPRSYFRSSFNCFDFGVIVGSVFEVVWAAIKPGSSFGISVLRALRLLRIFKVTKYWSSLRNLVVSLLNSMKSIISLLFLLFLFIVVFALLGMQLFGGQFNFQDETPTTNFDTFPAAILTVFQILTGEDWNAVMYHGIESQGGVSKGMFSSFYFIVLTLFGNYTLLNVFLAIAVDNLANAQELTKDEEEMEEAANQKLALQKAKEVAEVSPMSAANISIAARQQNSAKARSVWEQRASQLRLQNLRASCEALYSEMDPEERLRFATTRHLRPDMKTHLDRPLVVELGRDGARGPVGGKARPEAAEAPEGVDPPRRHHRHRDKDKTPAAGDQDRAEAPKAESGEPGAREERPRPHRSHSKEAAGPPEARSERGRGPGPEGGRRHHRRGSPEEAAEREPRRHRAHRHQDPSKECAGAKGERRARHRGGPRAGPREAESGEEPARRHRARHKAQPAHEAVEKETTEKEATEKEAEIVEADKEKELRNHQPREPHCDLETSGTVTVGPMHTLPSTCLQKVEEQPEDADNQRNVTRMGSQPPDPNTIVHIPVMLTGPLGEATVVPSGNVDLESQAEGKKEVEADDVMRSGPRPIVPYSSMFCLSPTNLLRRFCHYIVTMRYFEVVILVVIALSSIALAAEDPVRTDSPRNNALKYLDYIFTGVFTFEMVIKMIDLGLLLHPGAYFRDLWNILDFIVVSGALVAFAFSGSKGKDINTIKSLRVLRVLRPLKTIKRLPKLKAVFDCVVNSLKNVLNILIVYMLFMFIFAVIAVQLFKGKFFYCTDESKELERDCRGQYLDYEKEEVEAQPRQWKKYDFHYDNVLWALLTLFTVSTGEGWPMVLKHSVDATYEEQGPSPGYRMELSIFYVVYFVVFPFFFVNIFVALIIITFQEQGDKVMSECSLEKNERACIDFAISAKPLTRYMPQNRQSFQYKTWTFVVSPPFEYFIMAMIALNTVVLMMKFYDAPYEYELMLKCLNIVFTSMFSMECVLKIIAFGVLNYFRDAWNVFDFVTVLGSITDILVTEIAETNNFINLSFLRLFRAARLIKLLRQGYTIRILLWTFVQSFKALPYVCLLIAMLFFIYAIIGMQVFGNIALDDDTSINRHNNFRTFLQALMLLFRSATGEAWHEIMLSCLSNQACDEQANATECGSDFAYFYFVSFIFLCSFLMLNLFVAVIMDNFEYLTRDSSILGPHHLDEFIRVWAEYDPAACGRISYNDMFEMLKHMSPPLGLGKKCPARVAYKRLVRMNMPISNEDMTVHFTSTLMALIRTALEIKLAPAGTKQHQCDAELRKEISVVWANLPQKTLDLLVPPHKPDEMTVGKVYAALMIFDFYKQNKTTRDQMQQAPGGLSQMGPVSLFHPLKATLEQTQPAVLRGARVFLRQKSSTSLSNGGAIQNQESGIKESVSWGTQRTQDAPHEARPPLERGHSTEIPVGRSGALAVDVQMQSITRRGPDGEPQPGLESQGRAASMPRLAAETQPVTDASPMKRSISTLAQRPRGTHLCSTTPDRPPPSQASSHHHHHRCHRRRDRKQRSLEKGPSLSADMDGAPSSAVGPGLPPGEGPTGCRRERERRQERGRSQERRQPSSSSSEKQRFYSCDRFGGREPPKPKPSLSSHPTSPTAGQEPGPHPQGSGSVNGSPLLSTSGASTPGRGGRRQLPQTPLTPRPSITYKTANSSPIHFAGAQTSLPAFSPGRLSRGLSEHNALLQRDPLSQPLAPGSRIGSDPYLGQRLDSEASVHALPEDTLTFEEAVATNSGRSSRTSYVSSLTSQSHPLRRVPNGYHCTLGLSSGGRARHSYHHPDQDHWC
As to the kind of experiment: Fluorescence assay for CaV2.2 channels using potassium depolarization to induce channel opening (FLIPR, Fluo 4). The settings on record: 3 μM test compound; alternative assay buffer 30 mM KCl (inactivated channel state); HEK293 cells stably expressing human CaV2.2. It counts as cell-based. In a few lines: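 HEK293 cells stably co-expressing CaV2.2 with alpha2-delta and beta subunits plus Kir2.3, loaded with 2 μM Fluo 4 and pre-incubated 15 min at 25° C with compound in 1 mM or 30 mM KCl buffer (pH 7.4; latter promotes inactivated state). Depolarized by KCl addition; peak fluorescence amplitude normalized to baseline gives inhibition.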
For the compound `COc1cc(C#N)c(C2CC(C)(S(=O)(=O)c3cccc(C(F)(F)F)c3)CCO2)cn1` (stereo not shown) [SC-260, 2-Methoxy-5-[4-methyl-4-[[3-(trifluoromethyl)phenyl]sulfonyl]-tetrahydro-pyran-2-yl]-isonicotinonitrile], the “Activity Category: %-Inhib (CaV2.2) @3 μM @30 mM KCl” value (shortened to “Activity Category: %-Inhib”) is “A (%-Inhibition >95%)”.
Take `COc1cc(C#N)c(C2CC(C)(S(=O)(=O)c3cccc(C(F)(F)F)c3)CCO2)cn1` (stereo not shown) [SC-261, 2-Methoxy-5-[4-methyl-4-[[3-(trifluoromethyl)phenyl]sulfonyl]-tetrahydro-pyran-2-yl]-isonicotinonitrile]: the “Activity Category: %-Inhib” value is given as “C (%-Inhibition >40% up to ≤75%)”.
In the case of `CC1(S(=O)(=O)c2cccc(C(F)(F)F)c2)CCOC(c2ncc(S(C)(=O)=O)cc2OC(F)F)C1` (stereo not shown) [SC-269, 3-(difluoromethoxy)-2-(4-methyl-4-((3-(trifluoromethyl)phenyl)sulfonyl)tetrahydro-2H-pyran-2-yl)-5-(methylsulfonyl)pyridine], the “Activity Category: %-Inhib” value is “A (%-Inhibition >95%)”.
Consider `CC1(S(=O)(=O)c2cccc(C(F)(F)F)c2)CCOC(c2cnc(C(F)(F)F)nc2)C1` (stereo not shown) [SC-305, 5-[4-Methyl-4-[[3-(trifluoromethyl)phenyl]sulfonyl]-tetrahydro-pyran-2-yl]-2-(trifluoromethyl)-pyrimidine], for which the “Activity Category: %-Inhib” value is reported as “A (%-Inhibition >95%)”.
For the compound `CCC1(S(=O)(=O)c2cccc(C(F)(F)F)c2)CCOC(c2ccc(C)nc2C)C1` (stereo not shown) [SC-317, 3-[4-Ethyl-4-[[3-(trifluoromethyl)phenyl]sulfonyl]-tetrahydro-pyran-2-yl]-2,6-dimethyl-pyridine], the “Activity Category: %-Inhib” value is “C (%-Inhibition >40% up to ≤75%)”.
On the same count and under the same terms, under `CCC1(S(=O)(=O)c2cccc(C(F)(F)F)c2)CCOC(c2ccc(C)nc2C)C1` (stereo not shown) [SC-318, 3-[4-Ethyl-4-[[3-(trifluoromethyl)phenyl]sulfonyl]-tetrahydro-pyran-2-yl]-2,6-dimethyl-pyridine] stands “B (%-Inhibition >75% up to ≤95%)”.
With `CC1(S(=O)(=O)c2cccc(C(F)(F)F)c2)CCOC(c2cnc(C3CC3)cn2)C1` (stereo not shown) [SC-329, 2-Cyclopropyl-5-[4-methyl-4-[[3-(trifluoromethyl)phenyl]sulfonyl]-tetrahydro-pyran-2-yl]-pyrazine], the “Activity Category: %-Inhib” value is reported as “A (%-Inhibition >95%)”.
Turning to `CN(C)c1ccc(C2CC(C)(S(=O)(=O)c3cccc(C(F)(F)F)c3)CCO2)cn1` (stereo not shown) [SC-331, Dimethyl-[5-[4-methyl-4-[[3-(trifluoromethyl)phenyl]sulfonyl]-tetrahydro-pyran-2-yl]-pyridin-2-yl]-amine], the “Activity Category: %-Inhib” value is given as “A (%-Inhibition >95%)”.
Same read-out and setting: under `CC1(S(=O)(=O)c2cccc(C(F)(F)F)c2)CCOC(c2ccc(S(C)(=O)=O)nc2)C1` (stereo not shown) [SC-336, 2-Methylsulfonyl-5-[4-methyl-4-[[3-(trifluoromethyl)phenyl]sulfonyl]-tetrahydro-pyran-2-yl]-pyridine] stands “C (%-Inhibition >40% up to ≤75%)”; under `CC1(S(=O)(=O)c2cccc(C(F)(F)F)c2)CCOC(c2ccc(S(C)(=O)=O)nc2)C1` (stereo not shown) [SC-338, 2-Methylsulfonyl-5-[4-methyl-4-[[3-(trifluoromethyl)phenyl]sulfonyl]-tetrahydro-pyran-2-yl]-pyridine], “B (%-Inhibition >75% up to ≤95%)”.
Turning to `Cn1nc(C(F)(F)F)cc1C1CC(C)(S(=O)(=O)c2cccc(C(F)(F)F)c2)CCO1` (stereo not shown) [SC-345, 1-Methyl-5-[4-methyl-4-[[3-(trifluoromethyl)phenyl]sulfonyl]-tetrahydro-pyran-2-yl]-3-(trifluoromethyl)-1H-pyrazole], the “Activity Category: %-Inhib” value is “A (%-Inhibition >95%)”.

Still in this assay, the particulars now being: HEK293, 3 μM test compound; alternative assay buffer 30 mM KCl (inactivated channel state); HEK293 cells stably expressing human CaV2.2; read-out: Activity Category: %-Inhib (CaV2.2) @3 μM @30 mM KCl.
For `Cc1cc(S(C)(=O)=O)cnc1C1CC(C)(S(=O)(=O)c2cccc(C(F)(F)F)c2)CCO1` (stereo not shown) [SC-262, 3-Methyl-5-methylsulfonyl-2-[4-methyl-4-[[3-(trifluoromethyl)phenyl]sulfonyl]-tetrahydro-pyran-2-yl]-pyridine], the inhibition at 3 µM was 75 to 95%.
Turning to `CC1(S(=O)(=O)c2cccc(C(F)F)c2)CCOC(c2ncc(S(C)(=O)=O)cc2Cl)C1` (stereo not shown) [SC-265, 3-Chloro-2-[4-[[3-(difluoro-methyl)-phenyl]sulfonyl]-4-methyl-tetrahydro-pyran-2-yl]-5-methylsulfonyl-pyridine], the inhibition at 3 µM fell in the range of 40 to 75%.
On to `CC1(S(=O)(=O)c2cccc(C(F)(F)F)c2)CCOC(c2ncc(OC(F)F)cc2S(C)(=O)=O)C1` (stereo not shown) [SC-266, 5-(difluoromethoxy)-2-(4-methyl-4-((3-(trifluoromethyl)phenyl)sulfonyl)tetrahydro-2H-pyran-2-yl)-3-(methylsulfonyl)pyridine], for which the inhibition at 3 µM was over 95%.
For the compound `CC1(S(=O)(=O)c2cccc(C(F)(F)F)c2)CCOC(c2ncc(S(C)(=O)=O)cc2OC(F)F)C1` (stereo not shown) [SC-268, 3-(difluoromethoxy)-2-(4-methyl-4-((3-(trifluoromethyl)phenyl)sulfonyl)tetrahydro-2H-pyran-2-yl)-5-(methylsulfonyl)pyridine], the inhibition at 3 µM was in the range of 75 to 95%.
For the compound `CC1(S(=O)(=O)c2cccc(C(F)(F)F)c2)CCOC(c2ncc(S(C)(=O)=O)cc2C2CC2)C1` (stereo not shown) [SC-270, 3-cyclopropyl-2-(4-methyl-4-(3-(trifluoromethyl)phenylsulfonyl)tetrahydro-2H-pyran-2-yl)-5-(methylsulfonyl)pyridine], the inhibition at 3 µM fell in the range of 75 to 95%.
For `CC(C)Oc1ccc(C2CC(C)(S(=O)(=O)c3cccc(C(F)(F)F)c3)CCO2)cn1` (stereo not shown) [SC-300, 2-Isopropoxy-5-[4-methyl-4-[[3-(trifluoromethyl)phenyl]sulfonyl]-tetrahydro-pyran-2-yl]-pyridine], the inhibition at 3 µM was over 95%.
As for `CC1(S(=O)(=O)c2cccc(C(F)(F)F)c2)CCOC(c2cnc(C(F)(F)F)nc2)C1` (stereo not shown) [SC-304, 5-[4-Methyl-4-[[3-(trifluoromethyl)phenyl]sulfonyl]-tetrahydro-pyran-2-yl]-2-(trifluoromethyl)-pyrimidine], the inhibition at 3 µM was 75 to 95%.
For the compound `CC1(S(=O)(=O)c2cccc(C(F)(F)F)c2)CCOC(c2ccc(C(F)(F)F)cn2)C1` (stereo not shown) [SC-309, 2-[4-Methyl-4-[[3-(trifluoromethyl)phenyl]sulfonyl]-tetrahydro-pyran-2-yl]-5-(trifluoromethyl)-pyridine], the inhibition at 3 µM is over 95%.
On the same count and under the same terms, for `CCC1(S(=O)(=O)c2cccc(C(F)(F)F)c2)CCOC(c2cccnc2C)C1` (stereo not shown) [SC-312, 3-[4-Ethyl-4-[[3-(trifluoromethyl)phenyl]sulfonyl]-tetrahydro-pyran-2-yl]-2-methyl-pyridine] the value was 40 to 75%.
For the compound `CC1(S(=O)(=O)c2cccc(C(F)(F)F)c2)CCOC(c2ccc(C(F)(F)F)nc2)C1` (stereo not shown) [SC-315, 5-[4-Methyl-4-[[3-(trifluoromethyl)phenyl]sulfonyl]-tetrahydro-pyran-2-yl]-2-(trifluoromethyl)-pyridine], the inhibition at 3 µM was over 95%.
As to `CCC1(S(=O)(=O)c2cccc(C(F)(F)F)c2)CCOC(c2cccc(C)n2)C1` (stereo not shown) [SC-324, 2-[4-Ethyl-4-[[3-(trifluoromethyl)phenyl]sulfonyl]-tetrahydro-pyran-2-yl]-6-methyl-pyridine], the inhibition at 3 µM lay within 75 to 95%.
Same read-out and setting: under `CC1(S(=O)(=O)c2cccc(C(F)(F)F)c2)CCOC(c2cncc(C3CC3)c2)C1` (stereo not shown) [SC-325, 3-Cyclopropyl-5-[4-methyl-4-[[3-(trifluoromethyl)phenyl]sulfonyl]-tetrahydro-pyran-2-yl]-pyridine] stands over 95%; under `CC1(S(=O)(=O)c2cccc(C(F)(F)F)c2)CCOC(c2cnc(C3CC3)cn2)C1` (stereo not shown) [SC-327, 2-Cyclopropyl-5-[4-methyl-4-[[3-(trifluoromethyl)phenyl]sulfonyl]-tetrahydro-pyran-2-yl]-pyrazine], 75 to 95%.
With `CN(C)c1ccc(C2CC(C)(S(=O)(=O)c3cccc(C(F)(F)F)c3)CCO2)cn1` (stereo not shown) [SC-330, Dimethyl-[5-[4-methyl-4-[[3-(trifluoromethyl)phenyl]sulfonyl]-tetrahydro-pyran-2-yl]-pyridin-2-yl]-amine], the inhibition at 3 µM fell in the range of 75 to 95%.
In the case of `CCC1(S(=O)(=O)c2cccc(C(F)(F)F)c2)CCOC(c2cnc(C3CC3)cn2)C1` (stereo not shown) [SC-332, 2-Cyclopropyl-5-[4-ethyl-4-[[3-(trifluoromethyl)phenyl]sulfonyl]-tetrahydro-pyran-2-yl]-pyrazine], the inhibition at 3 µM is 75 to 95%.
Turning to `Cc1ccc(C2CC(S(=O)(=O)c3cccc(C(F)(F)F)c3)CCO2)c(C)n1` (stereo not shown) [SC-335, 2,6-Dimethyl-3-[4-[[3-(trifluoromethyl)phenyl]sulfonyl]-tetrahydro-pyran-2-yl]-pyridine], the inhibition at 3 µM lay within 40 to 75%.
The same measure, in the same setting: for `CC(C)Oc1ccc(C2CC(S(=O)(=O)c3cccc(C(F)(F)F)c3)CCO2)cn1` (stereo not shown) [SC-339, 2-Isopropoxy-5-[4-[[3-(trifluoromethyl)phenyl]sulfonyl]-tetrahydro-pyran-2-yl]-pyridine] the value was over 95%; for `O=S(=O)(c1cccc(C(F)(F)F)c1)C1CCOC(c2ccc(C(F)(F)F)nc2)C1` (stereo not shown) [SC-342, 2-(Trifluoromethyl)-5-[4-[[3-(trifluoromethyl)phenyl]sulfonyl]-tetrahydro-pyran-2-yl]-pyridine], 75 to 95%; for `Cn1nc(C(F)(F)F)cc1C1CC(C)(S(=O)(=O)c2cccc(C(F)(F)F)c2)CCO1` (stereo not shown) [SC-343, 1-Methyl-5-[4-methyl-4-[[3-(trifluoromethyl)phenyl]sulfonyl]-tetrahydro-pyran-2-yl]-3-(trifluoromethyl)-1H-pyrazole], 75 to 95%.
`CC1(S(=O)(=O)c2cccc(C(F)(F)F)c2)CCOC(c2ccc(C3CC3)nc2)C1` (stereo not shown) [SC-346, 2-Cyclopropyl-5-[4-methyl-4-[[3-(trifluoromethyl)phenyl]sulfonyl]-tetrahydro-pyran-2-yl]-pyridine]: the inhibition at 3 µM fell in the range of 75 to 95%.

Values taken from patent US9926302B2, “Heteroaryl substituted heterocyclyl sulfones” (priority 2014, dated 2018).
